Key:
[1] = Spectroscopy of HaloTag ligands and HaloTag conjugates; type: physicochemical; settings: 10 mM HEPES, pH 7.3
Procedure: Detailed descriptions of the materials and methods are provided in the supporting information. Multifunctional rhodamine–HaloTag ligands (13HTL–16HTL and 18HTL–20HTL) were synthesized using palladium-catalyzed cross-coupling reactions to install 3-carboxyazetidine moieties onto rhodamine scaffolds, followed by amide bond formation with biotin–PEG2–NH2, (S)-JQ1–PEG2–NH2, or (R)-JQ1–PEG2–NH2. Spectroscopic properties (λabs, λem, ε, and Φf) were determined in 10 mM HEPES, pH 7.3. The lactone–zwitterion equilibrium constants (KL–Z) were measured in 1:1 (v/v) dioxane–water mixtures. Octanol–water distribution coefficients (logD7.4) were determined by miniaturized shake-flask partitioning experiments using PBS (pH 7.4) and 1-octanol. Cell culture experiments employed HEK293T, U2OS, and Neuro2a cells transfected with HaloTag fusion constructs and labeled with ligands (100 nM to 1 μM, 0.5 to 2 h at 37 °C), followed by fluorescence microscopy using confocal or lattice light-sheet microscopy. Affinity purification studies utilized streptavidin magnetic beads to capture biotin-labeled HaloTag conjugates, with analysis by SDS-PAGE and in-gel fluorescence detection. […]
HaloTag protein purification. The bacterial expression vector pRSET-A (Invitrogen) was used to recombinantly express HaloTag (HT7; Promega).1 The soluble 6×His-Tagged HaloTag protein was affinity purified by immobilized metal affinity chromatography (IMAC) on a 5 -mL Fast Flow HiTrap Sepharose 6 column (Cytiva) with a 0–200 mM imidazole elution gradient using an Avant Protein Purification System (ÄKTA). A280 peak fractions were pooled, concentrated by a spin concentrator, and dialyzed 3× into tris-buffered saline (TBS). The amino acid sequence of HaloTag (HT7) expressed from pRSET-A is noted below; the annotated DNA and amino acid sequences […]
Spectroscopy of HaloTag ligands and HaloTag conjugates. Compounds 13HTL–16HTL, 18HTL, and 19HTL were prepared as stock solutions in DMSO and diluted such that the final DMSO […]
All measurements were taken at ambient temperature (22
± 2 °C). Absorption spectra were recorded on a Cary Model 100 spectrometer (Agilent) using 1-cm path length 1.0-mL quartz microcuvettes from Starna Cells. Fluorescence spectra were recorded on a Cary Eclipse fluorometer (Varian) using 1-cm path length 3.5-mL quartz cuvettes (Starna Cells). As before,2-4 HaloTag protein was used as a 100 μM solution in 1× TBS. HaloTag ligands 13HTL–16HTL, 18HTL, and 19HTL (5 μM) were dissolved in 10 mM HEPES, pH 7.3, containing 0.1 mg/mL CHAPS. An aliquot of HaloTag protein (1.5 equiv) was added, and the resulting mixture was incubated until a consistent absorbance signal was observed (60–120 min).
To measure the fold-increase of absorbance upon HaloTag binding, a “no HaloTag” control experiment was performed where an equivalent volume of TBS blank was added in place of the protein. Reported values for extinction coefficient (ε) are averages of at least two measurements. […]
Quantum yield determination. All reported absolute fluorescence quantum yield values (Φf) were measured in our laboratory under identical conditions using a Quantaurus-QY spectrometer (model C11374, Hamamatsu). This instrument uses an integrating sphere to determine photons absorbed and emitted by a sample. Measurements were performed using dilute samples (absorbance < 0.1), and self-absorption corrections were performed using the instrument software.5 Reported values are averages of at least two measurements.
Determination of logD7.4. The log of distribution coefficients at pH 7.4 was determined in octanol–phosphate-buffered saline (PBS) using a miniaturized shake flask setup described previously.6, 7 Briefly, 150 mL each of octanol and PBS pH 7.4 were stirred vigorously for 12–16 h. The layers were allowed to stand for at least 24 h for phase separation. The separated layers were collected and served as PBS saturated with octanol (PBS*) and octanol saturated with PBS […]

[2] = tested on: mitochondria from HEK293T cells expressing OMP25–msGFP–HaloTag; experiment: Affinity capture of mitochondria with streptavidin beads, in-gel fluorescence; type: cell-based; settings: for capture efficiency: 100 nM ligand, mean ± SEM; for mitochondria pulldown efficiency at 10-fold higher concentration: 1 µM ligand vs 100 nM
Procedure: We then used 15HTL and 16HTL to purify mitochondria from these cells by incubation followed by washing and cell lysis. The crude supernatant was incubated with streptavidin-coated magnetic microbeads and washed. The bead-bound mitochondria were lysed, and the resulting solution was analyzed by SDS–PAGE/in-gel fluorescence (Fig. 5 A and B). […] The lower in-gel fluorescence brightness for the wash and bound fractions of 15HTL or 16HTL compared to the wash and bound fractions of their parent dyes 5HTL or 6HTL (Fig. 5 B and C) stems from the variability of transient transfection and band broadening due to the larger ligand. […]
Affinity capture and in-gel fluorescence quantification. Affinity capture pulldown isolation experiments of biotin-labeled HaloTag fusion proteins were performed on ice-cold isolation buffer (IB) consisting of KCl (0.18 M), ethylene glycol-bis(β-aminoethyl ether)-N,N,N′,N′-tetraacetic acid (EGTA; 1 mM), 3-(N-morpholino)propanesulfonic acid (MOPS; 5 mM); the pH was adjusted to pH = 7.35 using KOH(aq).15 StrepTactin Microbeads (IBA Lifesciences, 6-5510-050) were used as capture reagents as these beads had lowest amount of background observed in our hands. These beads were kept at 4 °C and blocked in IB buffer with PMSF and 1% (v/v) bovine serum albumin (BSA; Jackson ImmunoResearch, 001-000-162) with rotation at 4 °C for 30 min. HEK293T cells were scraped with 200 µL IB and homogenized using 12 strokes with a 27G syringe. The resulting homogenate was spun at 4 °C at 800 g for 5 min to pellet large cellular debris. 50 µL of freshly blocked StrepTactin microbeads were added to the supernatant and incubated for 30 min at 4 °C with slow rotation. After incubation, tubes were placed in DynaMag2 (ThermoFisher, 12321D) magnetic racks and washed twice with IB+PMSF. All wash steps were kept at 4 °C (cold room).
The post-bead supernatant and wash volumes were pooled and spun at 15,000 g for 12 min. This last step pelleted the unbound mitochondria for final analysis of capture efficiency. The bead fraction and the pooled/pelleted fraction were then solubilized using the lysis buffer containing 1× PBS, 2% (v/v) SDS, 1% (v/v) Triton x-100, 10 mM EDTA, and protease inhibitors (2 mM PMSF, aprotinin, leupeptin, and pepstatin A). Samples were then incubated at 50 °C for 3–4 min after the addition of Laemmli sample buffer (SB; Bio-Rad, 1610747) with β-mercaptoethanol (Bio-Rad, 1610710). For protein detection, 10–20 µL of the sample was subjected to SDS-PAGE, using 10% Tris-Glycine gels (TGX) (Bio-Rad, 5671034) with Tris-Glycine buffer (Bio-Rad, 1610732). The affinity capture pulldown efficiency was monitored using in-gel fluorescence. The msGFP signal from HaloTag-TEV-4×GS-msGFP-mito after cell lysis and SDS-PAGE was analyzed, in-gel, using a Bio-Rad Chemidoc MP imager (Bio-Rad) through GFP fluorescence excitation and emission filters. Data were quantified by densitometry using Fiji.14 Capture efficiency was calculated comparing the total GFP signal recovered from StrepTactin beads vs the signal recovered from the high speed spin of the bead supernatant and pooled wash volumes. […]

With `C[Si]1(C)c2cc(N3CC(F)C3)ccc2C2(OC(=O)c3ccc(C(=O)NCCOCCOCCCCCCCl)cc32)c2ccc(N3CC(F)C3)cc21` [6HTL, JF635–HaloTag ligand, reference compound] the Φf [1] was 0.60, the ε [1] was ~ 400 M^−1cm^−1 and the λabs [1] was 640 nm. For the same compound, the λem [1] was 658 nm and the protein capture ([2]; biotin-free ligands) was “no appreciable protein capture”.

In the case of `O=C(CCCCC1SCC2NC(=O)NC21)NCCOCCOCCNC(=O)C1C[N+](=c2ccc3c(-c4cc(C(=O)NCCOCCOCCCCCCCl)ccc4C(=O)[O-])c4ccc(N5CCC5)cc4oc-3c2)C1` (stereo not shown) [13HTL, biotin–JF549–HaloTag ligand], the Φf [1] is reported as 0.90, the ε [1] is reported as 92,000 M^−1cm^−1 and the λabs [1] is reported as 552 nm. For the same compound, the λem [1] was 575 nm.

For `CC1(C)C2=CC(=[N+]3CC(C(=O)NCCOCCOCCNC(=O)CCCC[C@@H]4SC[C@@H]5NC(=O)N[C@@H]54)C3)C=CC2=C(c2cc(C(=O)NCCOCCOCCCCCCCl)ccc2C(=O)[O-])c2ccc(N3CCC3)cc21` (stereo partly shown) [14HTL, biotin–JF608–HaloTag ligand], the Φf [1] was 0.65, the ε [1] was 92,300 M^−1cm^−1 and the λabs [1] was 610 nm. The λem [1] was 634 nm.

With `C[Si]1(C)C2=CC(=[N+]3CC(C(=O)NCCOCCOCCNC(=O)CCCC[C@@H]4SC[C@@H]5NC(=O)N[C@@H]54)C3)C=CC2=C(c2cc(C(=O)NCCOCCOCCCCCCCl)ccc2C(=O)[O-])c2ccc(N3CCC3)cc21` (stereo partly shown) [15HTL, biotin–JF646–HaloTag ligand] the Φf [1] was 0.56, the ε [1] was 34,000 M^−1cm^−1 and the λabs [1] was 647 nm. The λem [1] was 666 nm, the capture efficiency [2] was 84.2 ± 1.8% and the “mitochondria pulldown efficiency at 10-fold higher concentration” value [2] was “did not increase mitochondria pulldown efficiency”.

For `C[Si]1(C)C2=CC(=[N+]3CC(F)(C(=O)NCCOCCOCCNC(=O)CCCC[C@@H]4SC[C@@H]5NC(=O)N[C@@H]54)C3)C=CC2=C(c2cc(C(=O)NCCOCCOCCCCCCCl)ccc2C(=O)[O-])c2ccc(N3CC(F)C3)cc21` (stereo partly shown) [16HTL, biotin–JF635–HaloTag ligand], the Φf [1] was 0.60, the ε [1] was 2,900 M^−1cm^−1 and the λabs [1] was 636 nm. For the same compound, the λem [1] was 655 nm, the capture efficiency [2] was 88.2 ± 1.1% and the “mitochondria pulldown efficiency at 10-fold higher concentration” value [2] was “did not increase mitochondria pulldown efficiency”.

Reference: article PMC12595484, “Optimizing multifunctional fluorescent ligands for intracellular labeling” (Proceedings of the National Academy of Sciences of the …, 2025)
